Data from patent publication US20240122938A1, “METHODS AND COMPOSITIONS FOR TREATING UVEAL MELANOMA” (INSERM (INSTITUT NATIONAL DE LA SANTÉ ET DE LA RECHERCHE …, priority 2019, published 2024).

Columns and labels:
[1] = system: ER stress molecules in metastatic human uveal melanoma cells; experiment: Western blot of ER stress molecules; type: cell-based
Method: (§1) Western blotting was performed as previously described 25,26. Briefly, cell lysates (30 μg) were separated using SDS-PAGE, transferred onto a PVDF membrane and subsequently exposed to the appropriate antibodies, anti-BCL2 (ms-123-PO) was from neomarker, anti-caspase 3 (#610323) was from BD, anti-BAX (#8429) was from sigma, anti-PARP (#9542), anti-BCL-XL (#2762), anti-caspase 9 (#9502) and anti-PUMA (#4976) were from Cell Signaling Technology Inc, anti-MCL1 (#sc-819), anti-NOXA (#56169), and anti-HSP90 (#sc-13119) were from Santa Cruz biotechnology. The proteins were visualized using the ECL system (Amersham). The western blots shown are representative of at least 3 independent experiments.

[2] = system: BCL-2 family members in metastatic OMM1 cells; experiment: Protein immunoblot of BCL-2 family members; type: cell-based, human
Method: as §1, with “(Amersham).” for “(Amersham). The western blots shown are representative of at least 3 independent experiments.”

[3] = system: NOXA in primary cells; experiment: Protein immunoblot of BCL-2 family members; type: cell-based, human; conditions: 24 h of treatment
Method: as §1, with “(Amersham).” for “(Amersham). The western blots shown are representative of at least 3 independent experiments.”

[4] = system: OMM1 uveal melanoma cells; experiment: Mitochondrial membrane potential by TMRE staining; type: cell-based, human; conditions: OMM1; ABT-263 3 μM or 5 μM, 48 h
Method: (§2) FIG. 1. ABT-263 induces apoptosis of uveal melanoma cells. Detection of the mitochondrial membrane potential using TMRE staining in Mel270 and OMM1 uveal melanoma cells exposed to ABT-263 3 μM or 5 μM for 48 h in the absence or presence of QVD-OPh 20 μM.

[5] = system: Mel270 uveal melanoma cells; experiment: Mitochondrial membrane potential by TMRE staining; type: cell-based, human; conditions: Mel270; ABT-263 3 μM or 5 μM, 48 h
Method: as §2

[6] = system: ATF4 and CHOP in 92.1 cells; experiment: Western blot of ER stress molecules; type: cell-based, human
Method: as §1

[7] = system: metastatic OMM1 xenografts; experiment: Subcutaneous tumor xenograft; type: in vivo, athymic nude mice
Method: FIG. 2. Effect of ABT-263 on tumor growth in vivo effects. (A) Primary Mel270 and (B) metastatic OMM1 uveal melanoma cells were subcutaneously engrafted into athymic nude mice. Once the tumours reached 100 mm3, mice were treated daily with ABT-263. The arrow indicates the start of the treatment. The growth tumor curves were determined by measuring the tumor volume using the equation V=(L Å˜W2)/2. […] (C-D) Sub-cutaneous tumor weight from control (Ct) and ABT-263-treated mice is shown. Animal experiments were performed in accordance with French law and approved by a local institutional ethical committee. The animals were maintained in a temperature-controlled facility (22° C.) on a 12-h light/dark cycle and provided free access to food (standard laboratory chow diet from UAR, Epinay-S/Orge, France). Human Mel270 uvealmelanoma cells were subcutaneously inoculated into 8-week-old female, immune-deficient, athymic, nude FOXN1nu mice (Harlan Laboratory). When the tumors became palpable (0.1-0.2 cm3), the mice received an intraperitoneal injection of ABT-263 (50 mg/kg), dissolved in 10% DMSO 6 times per week. Control mice were injected with DMSO alone. The growth tumor curves were determined after measuring the tumor volume using the equation V=(L×W2)/2. At the end of the experiment, the mice were euthanized by cervical dislocation.

[8] = Body weight and blood biochemical analysis of xenografted mice; type: in vivo
Method: FIG. 3. ABT-263 reduces tumor growth in vivo. (A) Primary 92.1 uveal melanoma cells were subcutaneously engrafted into athymic nude mice. Once the tumours reached 100 mm3, mice were treated daily with ABT-263. The arrow indicates the start of the treatment. The growth tumor curves were determined by measuring the tumor volume using the equation V=(L Å˜W2)/2. […] (B) Sub-cutaneous tumor weight from control (Ct) and ABT-263-treated mice is shown. (C) Blood biochemical analysis of mice xenografted with OMM1 cells. Serum activity of alanine transaminase (ALT) and aspartate transaminase (AST) was measured in control and ABT-263 by spectrophotometric methods after the end of treatment. Data are presented as mean±SD (n=5 per group). Animal experiments were performed in accordance with French law and approved by a local institutional ethical committee. The animals were maintained in a temperature-controlled facility (22° C.) on a 12-h light/dark cycle and provided free access to food (standard laboratory chow diet from UAR, Epinay-S/Orge, France). Human Mel270 uvealmelanoma cells were subcutaneously inoculated into 8-week-old female, immune-deficient, athymic, nude FOXN1nu mice (Harlan Laboratory). When the tumors became palpable (0.1-0.2 cm3), the mice received an intraperitoneal injection of ABT-263 (50 mg/kg), dissolved in 10% DMSO 6 times per week. Control mice were injected with DMSO alone. The growth tumor curves were determined after measuring the tumor volume using the equation V=(L×W2)/2. At the end of the experiment, the mice were euthanized by cervical dislocation.

[9] = system: 92.1 cells; experiment: Cell death / apoptosis; type: cell-based, human; conditions: 92.1 cells; similar level as Mel270
Method: Cells were seeded at a density of 100 000 cells/well, in 6-well plate and treated with ABT-263 for indicated time. Cells were harvested using accutase enzyme, washed twice with ice-cold phosphate-buffered saline, resuspended in a buffer (Hepes 250 mM, NaCl 150 mM, KCl 5 mM, MgCl2 2 mM, CaCl2) 2 mM) with DAPI (1 μg/ml) and Annexin V-Alexa Fluor 647 conjugate (1/100) and incubated for 15 minutes at room temperature (25° C.) in the dark. Samples were immediately analyzed by a flow cytometer (MACS QUANT) using a laser at 405 nm excitation with a bandpass filter at 425 nm and 475 nm for DAPI detection and a laser at 635 nm excitation with a bandpass filter at 650 nm and 665 nm for Alexa Fluor 647 dye. Annexin and DAPI mono- or double positive cells were counted as dead cells.

[10] = OMM1-xenografted mice, after end of treatment

With `CC1(C)CCC(c2ccc(Cl)cc2)=C(CN2CCN(c3ccc(C(=O)NS(=O)(=O)c4ccc(N[C@H](CCN5CCOCC5)CSc5ccccc5)c(S(=O)(=O)C(F)(F)F)c4)cc3)CC2)C1` [ABT-263, 4-[4-[[2-(4-chlorophenyl)-5,5-dimethyl-1-cyclohexen-1-yl]methyl]-1-piperazinyl]-N-[[4-[[(1R)-3-(4-morpholinyl)-1-[(phenylthio)methyl]propyl]amino]-3-[(trifluoromethyl)sulfonyl]phenyl]sulfonyl]-benzamide] the “PERK and IRE1α phosphorylation” value ([1]; metastatic cell lines) was “did not detect”, the “induction of ATF4 and CHOP” value ([1]; metastatic cells) was “hardly detectable” and the BCL2 level ([2]; cell line not given) was “no change”. The “expression of BCL-xL, MCL1, PUMA, BAX” value ([2]; metastatic OMM1 cells only) was “reduced expression”, the “change in BCL-2 family proteins” value [3] was “increase in pro-apoptotic NOXA level” and the “mitochondrial membrane potential ΔΨm” value [4] was “dose-dependently reduced”. The “mitochondrial membrane potential ΔΨm” value [5] was “dose-dependently reduced”, the “ATF4 and CHOP level” value [6] was “enhanced” and the “excised tumor weight versus control group” value ([7]; end of experiment) was “weighed significantly less”. The tumor growth ([7]; metastatic OMM1 xenografts, in some mice total tumor disappearance) was “marked tumor regression”, the “serum alanine transaminase (ALT) versus vehicle” value [8, 10] was “no significant differences” and the “serum aspartate transaminase (AST) versus vehicle” value [8, 10] was “no significant differences”. The hepatotoxicity ([8]; in vivo conditions) was “no hepatotoxicity”, the “body weight versus vehicle” value ([8]; xenografted mice, data not shown) was “no significant differences” and the “ABT-263-induced apoptosis with PERK knockdown” value [9] was “sensitized”.
